{"source": "patent EP4702986A1", "about": "“POLYPEPTIDE AND USE THEREOF” (Biocells (Beijing) Biotech Co., Ltd., priority 2023, dated 2024)", "key": {"[1]": {"tested_on": "rat model of pMACO", "assay": "Foot fault test in rat model of pMACO", "format": "in vivo, SD rats", "conditions": "rat pMCAO; D7 after administration; comparison in words"}, "[2]": {"tested_on": "rat model of pMACO", "assay": "Rotarod test in rat model of pMACO", "format": "in vivo, SD rats", "conditions": "IRL1620 5 µg/Kg, BX34 7 µg/Kg, BX48 5 µg/Kg, administered 3 times (2, 4, 6 hours after modeling), n=10", "source_text": "Male SD rats weighing 280-300 g were used and acclimated for at least 3 days. Focal cerebral ischemia was induced by middle cerebral artery occlusion with a suture method under isoflurane anesthesia. The animals were placed in a secure supine position, and a midline incision was made to expose the right common carotid artery, external carotid artery, and internal carotid artery. A 4.0 monofilament nylon suture was advanced from the external carotid artery toward the internal carotid artery lumen until resistance was felt ( ~ 20 mm), indicating middle cerebral artery occlusion. The nylon filament was allowed to stay in place to create a permanent model of focal cerebral ischemia. Successfully modeled rats were randomly assigned to four groups: a solvent (normal saline) group (n=10), a 7 µg/Kg BX-34 group (n=10), a 5 µg/Kg BX-48 group (n=10), and a 5 µg/Kg IRL1620 group (n=10). Each group was administered once at 2 hours, 4 hours, and 6 hours, respectively, after modeling, for a total of three administrations. Grip strength was measured before administration and at 24 hours and on D3 and D7 after administration. A rotarod test and a foot fault test were performed before administration and at 24 hours and day 7 after administration. During the rotarod test, time and distance were recorded, and ratios of the measurement at 24 hours and the measurement at D7 to the pretest measurement were used as analysis indicators. The specific method for the foot fault test was as follows. The rats were placed on an elevated grid floor (29×29 cm, grid opening: 3 cm^2) for 2 minutes, and the number of foot faults (when a forelimb fell through the grid) and the total steps were recorded. % Foot fault = (the number of forelimb faults/the total number of forelimb steps) × 100."}}, "note": "Numbered stars: 1 amine (or outer) side, 2 acyl side, 3 side chain; on linkers, the order of the positions; unused ones are H or OH. Side chains are listed from the residue outwards. Peptide text beside a SMILES is read from it. * marks the point of attachment. C18 diacid = O=C(O)CCCCCCCCCCCCCCCCC(=O)*; γGlu = O=C(O)[C@H](CCC(=O)[*:2])N[*:1]; Fumaroyl = O=C(O)/C=C/C(=O)*; AEEA = NCCOCCOCC(=O)O", "data": [{"compound": "CC[C@H](C)[C@H](NC(=O)[C@H](CC(=O)O)NC(=O)[C@H](CCCCNC(=O)COCCOCCNC(=O)COCCOCCNC(=O)CC[C@H](NC(=O)CCCCCCCCCCCCCCCCC(=O)O)C(=O)O)NC(=O)[C@H](Cc1c[nH]cn1)NC(=O)[C@H](C)NC(=O)[C@H](Cc1ccccc1)NC(=O)[C@H](Cc1ccc(O)cc1)NC(=O)[C@@H](NC(=O)[C@H](C)NC(=O)[C@H](CCC(=O)O)NC(=O)[C@H](CCC(=O)O)NC(=O)[C@H](CC(=O)O)NC(=O)/C=C/C(=O)O)C(C)C)C(=O)N[C@H](C(=O)N[C@@H](Cc1c[nH]c2ccccc12)C(=O)O)[C@@H](C)CC", "note": "[BX-34] (Fumaroyl-DEEAVYFAHK([AEEA-AEEA-γGlu-C18 diacid])DIIW-OH)", "values": [{"measurement": "percentages of foot faults", "setting": "[1]", "value": "lower than that of the saline group and the IRL1620 group"}, {"measurement": "Rotarod Test 7D/pretest (%) Distance, m", "setting": "[2]; 7D relative to pretest", "value": "49.60%±49.48%"}, {"measurement": "Rotarod Test 7D/pretest (%) Time, s", "setting": "[2]; 7D relative to pretest", "value": "65.5%±29.94%"}, {"measurement": "Rotarod Test 7D/pretest (%) Velocity", "setting": "[2]; 7D relative to pretest", "value": "62.27%±34.12%"}, {"measurement": "Rotarod Test 24h/pretest (%) Distance, m", "setting": "[2]; 24h relative to pretest", "value": "28.25%±44.00%"}, {"measurement": "Rotarod Test 24h/pretest (%) Time, s", "setting": "[2]; 24h relative to pretest", "value": "38.34%±38.08%"}, {"measurement": "Rotarod Test 24h/pretest (%) Velocity", "setting": "[2]; 24h relative to pretest", "value": "39.09%±35.03%"}]}]}
